Laboratory results reported in patent publication US20130029970A1 (priority 2009, published 2013).

Columns and labels:
[1] = molecular target: T1, human CB1 (hCB1) (Homo sapiens, UniProt P21554); assay: 35S GTPγS binding assay, hCB1 agonist; format: biochemical; conditions: GTPγS agonist, HEK-293 membranes; read-out: hCB1 EC50 (GTPyS ag)
T1 construct: (cDNA clone) CNR01L000

[2] = molecular target: T2, recombinant human cannabinoid receptor CB1 (Homo sapiens, UniProt P21554); assay: Cannabinoid receptor radioligand binding assay, [3H]-CP 55,940 displacement, hCB1
T2 construct: (cDNA clone) CNR01L000
In short: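 Displacement of 0.5 nM [3H]-CP 55,940 (1 μM unlabeled CP 55,940 for nonspecific) measured by filtration and scintillation counting. Binding ran 90 min at room temperature in pH 7.5 Tris buffer with 0.1% fatty-acid-free BSA, using recombinant hCB1 HEK-293 membranes at 2-10 μg protein.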

[3] = molecular target: T3, human CB2 (hCB2) (Homo sapiens, UniProt P34972); assay: 35S GTPγS binding assay, hCB2 agonist; format: biochemical; conditions: GTPγS agonist, HEK-293 membranes; read-out: hCB2 EC50 (GTPyS ag)
T3 construct: (cDNA clone) CNR0200000
In short: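 Agonist-stimulated [35S]GTPγS (0.1 nM) binding measured by scintillation proximity after 90 min at room temperature. Reaction buffer: 50 mM HEPES pH 7.4, 100 mM NaCl, 5 mM MgCl2, 0.001% saponin plus 20 uM GDP. Membranes (5 μg) came from transfected cells expressing hCB2 cDNA (pcDNA3.1+ vector).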

T2 sequence (P21554 whole entry): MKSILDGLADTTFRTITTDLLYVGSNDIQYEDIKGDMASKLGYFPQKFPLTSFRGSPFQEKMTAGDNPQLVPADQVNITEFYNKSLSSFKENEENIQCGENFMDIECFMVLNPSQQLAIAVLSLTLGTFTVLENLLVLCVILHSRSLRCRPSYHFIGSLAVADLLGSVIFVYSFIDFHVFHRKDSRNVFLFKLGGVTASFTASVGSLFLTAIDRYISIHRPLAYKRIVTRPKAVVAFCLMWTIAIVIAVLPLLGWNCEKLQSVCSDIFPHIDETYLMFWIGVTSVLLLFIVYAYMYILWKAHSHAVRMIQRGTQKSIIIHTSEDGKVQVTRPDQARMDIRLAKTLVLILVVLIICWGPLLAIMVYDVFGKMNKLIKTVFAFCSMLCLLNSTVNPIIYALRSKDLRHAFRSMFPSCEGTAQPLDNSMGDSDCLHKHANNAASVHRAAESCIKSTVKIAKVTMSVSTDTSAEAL
T1 sequence (P21554 whole entry): as above
T3 sequence (P34972 whole entry): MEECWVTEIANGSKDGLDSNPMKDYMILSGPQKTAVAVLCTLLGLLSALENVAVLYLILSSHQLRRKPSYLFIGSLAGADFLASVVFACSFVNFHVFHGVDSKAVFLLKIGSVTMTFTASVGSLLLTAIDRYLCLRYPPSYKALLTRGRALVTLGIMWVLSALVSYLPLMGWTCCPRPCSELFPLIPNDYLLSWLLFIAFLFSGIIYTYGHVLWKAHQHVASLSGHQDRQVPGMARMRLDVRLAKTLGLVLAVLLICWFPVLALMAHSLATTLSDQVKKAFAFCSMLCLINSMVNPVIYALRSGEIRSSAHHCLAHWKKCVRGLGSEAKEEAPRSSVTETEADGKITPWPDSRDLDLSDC

| SMILES | EC50 [1] [nM] | IC50 [2] [nM] | EC50 [3] [nM] |
| --- | --- | --- | --- |
| Cc1cc2cc(C(=O)c3cccc(Cl)c3Cl)sc2n1CCc1ccccc1 [Compound 30, (2,3-Dichlorophenyl)(5-methyl-6-phenethyl-6H-thieno[2,3-b]pyrrol-2-yl)methanone] | 100 to 1000 | 100 to 1000 | < 100 |
| Cc1cc2cc(C(=O)c3cccc(Cl)c3Cl)sc2n1CCN1CCN(C)CC1 [Compound 33, (2,3-Dichlorophenyl)(5-methyl-6-(2-(4-methylpiperazin-1-yl)ethyl)-6H-thieno[2,3-b]pyrrol-2-yl)methanone] | < 100 | > 10000 | – |
| Cc1cc2cc(C(=O)c3cccc(Cl)c3Cl)sc2n1S(=O)(=O)N1CCOCC1 [Compound 45, (2,3-Dichlorophenyl)(5-methyl-6-(morpholinosulfonyl)-6H-thieno[2,3-b]pyrrol-2-yl)methanone] | 100 to 1000 | < 100 | < 100 |
| Cc1cc2cc(C(=O)c3cccc(Cl)c3Cl)sc2n1S(=O)(=O)CC1CCOCC1 [Compound 46, (2,3-Dichlorophenyl)(5-methyl-6-((tetrahydro-2H-pyran-4-yl)methylsulfonyl)-6H-thieno[2,3-b]pyrrol-2-yl)methanone] | < 100 | < 100 | < 100 |
| COc1ccc(C(=O)c2cc3cc(C)n(S(=O)(=O)N4CCOCC4)c3s2)cc1 [Compound 53, (4-methoxyphenyl)(5-methyl-6-(morpholinosulfonyl)-6H-thieno[2,3-b]pyrrol-2-yl)methanone] | 100 to 1000 | < 100 | < 100 |
| COc1ccc(C(=O)c2cc3cc(C)n(S(=O)(=O)CC4CCOCC4)c3s2)cc1 [Compound 57, (4-Methoxyphenyl)(5-methyl-6-((tetrahydro-2H-pyran-4-yl)methylsulfonyl)-6H-thieno[2,3-b]pyrrol-2-yl)methanone] | < 100 | < 100 | < 100 |
| COc1ccc(C(=O)c2cc3cc(C)n(CC4CCOCC4)c3s2)cc1 [Compound 62, (4-Methoxyphenyl)(5-methyl-6-((tetrahydro-2H-pyran-4-yl)methyl)-6H-thieno[2,3-b]pyrrol-2-yl)methanone] | 100 to 1000 | 1000 to 10000 | < 100 |
| COc1ccc(C(=O)c2cc3cc(C)n(CCN4CCCCC4)c3s2)cc1 [Compound 78, (4-Methoxyphenyl)(5-methyl-6-(2-(piperidin-1-yl)ethyl)-6H-thieno[2,3-b]pyrrol-2-yl)methanone] | < 100 | 1000 to 10000 | < 100 |
| COc1ccc(C(=O)c2cc3cc(C)n(CCC4CCOCC4)c3s2)cc1 [Compound 82, (4-Methoxyphenyl)(5-methyl-6-(2-(tetrahydro-2H-pyran-4-yl)ethyl)-6H-thieno[2,3-b]pyrrol-2-yl)methanone] | 100 to 1000 | 100 to 1000 | < 100 |
| COc1ccc(C(=O)c2cc3cc(C)n(CCN4CCOCC4)c3s2)c(C(F)(F)F)c1 [Compound 119, (4-Methoxy-2-(trifluoromethyl)phenyl)(5-methyl-6-(2-morpholinoethyl)-6H-thieno[2,3-b]pyrrol-2-yl)methanone] | 100 to 1000 | 1000 to 10000 | < 100 |
| COc1ccc(C(=O)c2cc3cc(C)n(CCN4CCOCC4)c3s2)c(OC)c1 [Compound 120, (2,4-Dimethoxyphenyl)(5-methyl-6-(2-morpholinoethyl)-6H-thieno[2,3-b]pyrrol-2-yl)methanone] | 100 to 1000 | 100 to 1000 | < 100 |
| CCOc1ccc(C(=O)c2cc3cc(C)n(CCN4CCOCC4)c3s2)c(Cl)c1 [Compound 126, (2-chloro-4-ethoxyphenyl)(5-methyl-6-(2-morpholinoethyl)-6H-thieno[2,3-b]pyrrol-2-yl)methanone] | 1000 to 10000 | 100 to 1000 | < 100 |
| COc1ccc(C(=O)c2cc3cc(C)n(S(=O)(=O)CCN4CCOCC4)c3s2)cc1 [Compound 139, (4-methoxyphenyl)(5-methyl-6-(2-morpholinoethylsulfonyl)-6H-thieno[2,3-b]pyrrol-2-yl)methanone] | 100 to 1000 | 100 to 1000 | < 100 |
| COc1ccc(C(=O)c2cc3cc(C)n(CCN4CCCOCC4)c3s2)cn1 [Compound 158, (6-(2-(1,4-oxazepan-4-yl)ethyl)-5-methyl-6H-thieno[2,3-b]pyrrol-2-yl)(6-methoxypyridin-3-yl)methanone] | > 10000 | 100 to 1000 | 100 to 1000 |
| COc1ccc(C(=O)c2cc3cc(C)n(CCNC4CCOC4)c3s2)cn1 (centres unmarked) [Compound 164, (6-methoxypyridin-3-yl)(5-methyl-6-(2-((tetrahydrofuran-3-yl)amino)ethyl)-6H-thieno[2,3-b]pyrrol-2-yl)methanone] | > 10000 | 1000 to 10000 | 1000 to 10000 |
| COc1ccc(C(=O)c2cc3cc(C)n(CCN4CCCC4)c3s2)cn1 [Compound 167, (6-methoxypyridin-3-yl)(5-methyl-6-(2-(pyrrolidin-1-yl)ethyl)-6H-thieno[2,3-b]pyrrol-2-yl)methanone] | > 10000 | < 100 | 1000 to 10000 |
